Experiments:
Format in all cases: cell-based
human platelets = assay: Loading of platelets with trehalose (anthrone reaction); conditions: for trehalose uptake: 37° C.; for loading efficiency of trehalose: 4 hour incubation, 50 mM external trehalose
Protocol: Washing of Platelets. Platelet concentrations were obtained from the Sacramento blood center or from volunteers in our laboratory. Platelet rich plasma was centrifuged for 8 minutes at 320×g to remove erythrocytes and leukocytes. The supernatant was pelleted and washed two times (480×g for 22 minutes, 480×g for 15 minutes) in buffer A (100 MM NaCl, 10 MM KCl, 10 mM EGTA, 10 mM imidazole, pH 6.8). Platelet counts were obtained on a Coulter counter T890 (Coulter, Inc., Miami, Fla.).
Loading of Platelets with Trehalose. Washed platelets in a concentration of 1-2 10^9 platelets/ml were incubated at various temperatures in the presence of 1-20 mg/ml trehalose. Incubation temperatures were chosen from 4° C. to 37° C. Incubation times were varied from 0.5 to 4 hours. After incubation the platelet solutions were washed in buffer A two times (by centrifugation at 14,000 RPM for 20 s in a table centrifuge). Platelet counts were obtained on a coulter counter. Platelets were pelleted (45 S at 14,000 RPM) and sugars were extracted from the pellet using 80% methanol. The samples were heated for 30 minutes at 80° C. The methanol was 10 evaporated with nitrogen, and the samples were kept dry and redissolved in H2O prior to analysis. The amount of trehalose in the platelets was quantified using the anthrone reaction (Umbreit et al., Mamometric and Biochemical Techniques, 5th Edition, 1972). Samples were redissolved in 3 ml H2O and 6 ml anthrone reagents (2 g anthrone dissolved in 10M sulfuric acid). After vortex mixing, the samples were placed in a boiling water bath for 3 minutes. Then the samples were cooled on ice and the absorbance was measured at 620 nm on a Perkin Elmer spectrophotometer. The amount of platelet associated trehalose was determined using a standard curve of trehalose.
Quantification of Trehalose and LYCH Concentration. Uptake was calculated for each sample as micrograms of trehalose or LYCH per platelet. The internal trehalose concentration was calculated assuming a platelet radius of 1.2 μm and by assuming that 50% of the platelet volume is taken up by the cytosol (rest is membranes). The loading efficiency was determined from the cytosolic trehalose or LYCH concentration and the concentration in the loading buffer.

erythrocytic cells [1] = assay: Osmotic fragility index of trehalose-loaded erythrocytic cells
Protocol: FIG. 6 graphically illustrates the fragility index of erythrocytic cells incubated overnight at respective temperatures of 4° C. and 37° C. in the presence of and as a function of increasing intracellular trehalose concentrations. The osmotic fragility index was generated by the extent of hemolysis as a function of the NaCl concentration. The erythrocytic cells that had been loaded in trehalose solutions (between 250 mM and 1000 mM) in 100 mOsm PBS were suspended in increasing concentrations of NaCl (between 50 and 600 mOsm NaCl). The percent hemolysis measured after resuspending the loaded cells in NaCl represents the fragility index.

erythrocytic cells [2] = assay: ATP level of erythrocytic cells
Source text: (§1) Levels of ATP and DPG may be measured or assayed in biological samples (e.g., in cells) by any suitable means or procedure. By way of example only, levels of ATP and DPG may be measured or assayed in biological samples (e.g., in cells) by using Sigma Diagnostic (Sigma Aldrich Chemicals, St. Louis, Mo.) assay kits (cat. # for ATP assay 366 and 366-A, and for 2,3-DPG assay 35-A) designed for determination of ATP and 2,3-DPG in biological samples (e.g., red blood cells). By further way of example only, biological samples (e.g., cells) may be lysed using 12% and 8% trichloracetic acid for ATP and 2,3-DPG determination, respectively. ATP may be quantified enzymatically by catalyzing ATP to ADP in the presence of 3-phosphoglycerate (3-PGA) using phosphoglycerate phosphokinase (PGK) and the resulting 1,3-diphosphoglycerate induced oxidation of NADH to NAD using glyceraldehyde phosphate dehydrogenase (GAPD) present in the assay media. The level of NADH may be monitored spectrophotometrically at 340 nm which corresponds directly with the ATP level. 2,3-DPG may be hydrolyzed by 2,3-DPG phosphatase to 3-PGA and inorganic phosphorus in the presence of 2-phosphoglycolic acid as a stimulator. 3-PGA reacts with ATP in the presence of PGK and the subsequent steps follow the above protocol used for ATP quantification. […]

erythrocytic cells [3] = assay: 2,3-DPG level of erythrocytic cells
Source text: as §1

erythrocytic cells [4] = assay: Percent hemolysis of erythrocytic cells during loading or incubation; conditions: 800 mM trehalose, 100 mOsm ADSOL, 6.6 mM Na-phosphate; 38-41° C., 6 hours

Structure (SMILES): OC[C@H]1O[C@H](O[C@H]2O[C@H](CO)[C@@H](O)[C@H](O)[C@H]2O)[C@H](O)[C@@H](O)[C@@H]1O [trehalose]
- trehalose uptake (human platelets; after 2 hours, rapid linear uptake): 3.3×10^−10 mol/m^2s
- trehalose uptake (human platelets; from 0 to 2 hours): 2.8×10^−11 mol/m^2s
- loading efficiency of trehalose (human platelets; 22° C. and below): below 5%
- loading efficiency of trehalose (human platelets; 37° C. (FIG. 1)): 35%
- loading efficiency (human platelets; time course at 37° C., incubation period of 4 hours (FIG. 2)): 61%
- osmotic fragility (erythrocytic cells [1]; 1000 mM trehalose in 100 mOsm PBS at 37° C.): unstable
- osmotic fragility (erythrocytic cells [1]; trehalose media between 250 mM and 800 mM in 100 mOsm PBS, 37° C. and 4° C.): stable osmotically
- level of ATP (erythrocytic cells [2]; 37° C., during 16 hours of incubation): does not decrease
- level of ATP (erythrocytic cells [2]; trehalose solute solution, about 37° C., about 0 to about 7 hours, increases from about 4.0): about 4.5 μmol/gHb
- level of 2,3-DPG (erythrocytic cells [3]; 37° C., first 7 hours of incubation): high
- level of 2,3-DPG (erythrocytic cells [3]; 7 hours incubation at about 37° C. in a trehalose containing solution): about 8.5 μmol/gHb
- extent of hemolysis during loading (erythrocytic cells [4]): about 17%
